Values after ≈ are worked out from the molar mass of the structure shown. Read-outs that look alike come from different tables or passages of the source.
Tested on: S. aureus ATCC 29213
Test: microbe, parasite or virus in culture
Details: for MIC: Staphylococcus aureus; for Increase of MIC: relative to first passage
Description: To determine the MICs of CSP-4, a single colony of S. aureus ATCC 29213 was cultured at 37° C in tryptic soy broth, as well as daptomycin and linezolid, which served as commercial antibiotic positive controls. […] For each agent, the MIC was determined daily for 29 days at pH 5.5 and/or for 8 days at pH 7.4 using cells from wells containing half the MIC (1/2 MIC well). […] All MICs were determined in duplicate.

[1] = after 8 passages at pH 7.4, 10 mM sodium phosphate buffer, 10% tryptic soy broth

Row | Structure (SMILES) | MIC (ATCC29213, pH 5.5, read-out: MIC at start of resistance induction) [µM] | MIC (ATCC29213, pH 7.4, read-out: MIC at start of resistance induction) [µM] | Increase of MIC [1] | Passages over which resistance was induced (pH 5.5) [passages] | Passages after which resistance was induced (pH 7.4) [passages] | Increase of MIC (after 29 passages at pH 5.5) | Increase of MIC following prolonged exposure (following prolonged exposure) [fold] | MIC at start of resistance induction (pH 5.5) [µM] | MIC at start of resistance induction (pH 7.4) [µM]
1 | CC(=O)NC[C@H]1CN(c2ccc(N3CCOCC3)c(F)c2)C(=O)O1 [linezolid] | 4 (≈ 1.35 µg/mL) | 8 (≈ 2.7 µg/mL) | approximately 200 × | 24 | 5 |  |  |  | 
2 | CCCCCCCCCC(=O)N[C@@H](Cc1c[nH]c2ccccc12)C(=O)N[C@H](CC(N)=O)C(=O)N[C@@H](CC(=O)O)C(=O)N[C@@H]1C(=O)NCC(=O)N[C@@H](CCCN)C(=O)N[C@@H](CC(=O)O)C(=O)N[C@H](C)C(=O)N[C@@H](CC(=O)O)C(=O)NCC(=O)N[C@H](CO)C(=O)N[C@@H]([C@H](C)CC(=O)O)C(=O)N[C@@H](CC(=O)c2ccccc2N)C(=O)O[C@@H]1C [daptomycin] |  |  | approximately 1000 × | 24 | 5 | over 8000 × | ≤ 8000 | 0.25 | 4
